Reference: the supplement of paper PMC10307832

Legend:
Assay in all cases: relative viability (nuclei count vs DMSO), 5 days (fraction); higher = more cells survive
[1] = compound: CCC1=CN=CN=C1N2CCN(CC2)CC3=NC4=C(N3)C=C(C=C4)C(F)(F)F + C[C@@H](Oc1cc(-c2cnn(C3CCNCC3)c2)cnc1N)c1c(Cl)ccc(F)c1Cl [Crizotinib] (partner 1 µM)
Outline: (§1)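 A single step with final 0.05% Triton X-100, 1% formaldehyde and 1 ug/ml Hoechst fixed the cells and stained nuclei 5 days after treatment. Lung cancer cell lines in 1536-well plates had been treated by pin tool the day after seeding with one drug alone or a fixed anchor-drug dose plus five library-drug doses (not always all listed) in √10 steps, and nuclei were counted on 4× images. Relative viability is the ratio of nuclei in treated wells to nuclei in vehicle wells, taken as the median of duplicate plates.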

[2] = compound: CCC1=CN=CN=C1N2CCN(CC2)CC3=NC4=C(N3)C=C(C=C4)C(F)(F)F + C[C@]1(O)C[C@@H](c2nc(-c3ccc4ccc(-c5ccccc5)nc4c3)c3c(N)nccn32)C1 [Linsitinib] (partner 1 µM)
Outline: as §1

[3] = compound: CCC1=CN=CN=C1N2CCN(CC2)CC3=NC4=C(N3)C=C(C=C4)C(F)(F)F + Nc1ncn([C@H]2C[C@H](O)[C@@H](CO)O2)c(=O)n1 [Decitabine] (partner 2 µM)
Outline: as §1

Mirin + Bortezomib = compound: N=C1NC(=O)/C(=C/c2ccc(O)cc2)S1 [Mirin] + CC(C)C[C@H](NC(=O)[C@H](Cc1ccccc1)NC(=O)c1cnccn1)B(O)O [Bortezomib] (partner 0.002 µM)
Outline: as §1

| Cell Line | relative viability ([1]; first compound 0.04 µM) | relative viability ([1]; first compound 0.1265 µM) | relative viability ([1]; first compound 0.4 µM) | relative viability ([1]; first compound 1.265 µM) | relative viability ([1]; first compound 4 µM) | relative viability ([2]; first compound 0.04 µM) | relative viability ([2]; first compound 0.1265 µM) | relative viability ([2]; first compound 0.4 µM) | relative viability ([2]; first compound 1.265 µM) | relative viability ([2]; first compound 4 µM) | relative viability ([3]; first compound 0.04 µM) | relative viability ([3]; first compound 0.1265 µM) | relative viability ([3]; first compound 0.4 µM) | relative viability ([3]; first compound 1.265 µM) | relative viability ([3]; first compound 4 µM) | relative viability (Mirin + Bortezomib; first compound 0.25 µM) | relative viability (Mirin + Bortezomib; first compound 0.7906 µM) | relative viability (Mirin + Bortezomib; first compound 2.5 µM) | relative viability (Mirin + Bortezomib; first compound 7.906 µM) | relative viability (Mirin + Bortezomib; first compound 25 µM) |
| --- | --- | --- | --- | --- | --- | --- | --- | --- | --- | --- | --- | --- | --- | --- | --- | --- | --- | --- | --- | --- |
| NCI-H1651 | 0.889 | 0.839 | 0.845 | 0.837 | 0.913 | 0.96 | 1.09 | 0.934 | 0.938 | 0.944 | 0.623 | 0.413 | 0.667 | 0.602 | 0.581 | 0.912 | 0.959 | 0.931 | 0.854 | 0.916 |
| NCI-H1666 | 0.974 | 0.916 | 1.1 | 0.849 | 1.03 | 0.726 | 0.832 | 0.845 | 0.913 | 0.821 | 0.746 | 0.733 | 0.699 | 0.65 | 0.719 | 0.883 | 0.873 | 0.976 | 0.513 | 0.479 |
| NCI-H1734 | 0.655 | 0.679 | 0.751 | – | 1.12 | 0.971 | 0.836 | 0.946 | – | 0.877 | 0.458 | 0.465 | 0.566 | 0.499 | 0.489 | 0.952 | 0.778 | 0.987 | 0.831 | 0.793 |
| NCI-H1755 | 0.963 | 0.809 | 0.948 | 0.89 | 1.06 | 1.02 | 0.938 | 0.955 | 0.948 | 0.944 | 0.759 | 0.693 | 0.729 | 0.72 | 0.759 | 0.951 | 1.03 | 0.979 | 0.873 | 1.11 |
| NCI-H1792 | 0.881 | 0.875 | 0.94 | 0.958 | 1.01 | 0.522 | 0.543 | 0.497 | 0.424 | 0.511 | 0.543 | 0.437 | 0.57 | – | 0.523 | 0.982 | 0.997 | 0.902 | 0.883 | 0.984 |
| NCI-H1915 | 0.916 | 0.878 | 0.85 | 0.934 | 1.03 | 1.15 | 1.09 | 1.09 | 1.04 | 1.12 | 0.24 | 0.262 | 0.261 | 0.272 | 0.263 | 1.03 | – | 1.01 | 0.931 | 0.945 |
| NCI-H1975 | 1.08 | 0.983 | 0.968 | 1.11 | 1.04 | 1.07 | 0.966 | 0.898 | 0.901 | 0.921 | 0.358 | 0.396 | 0.41 | 0.339 | 0.393 | 0.375 | 0.366 | 0.468 | 0.498 | 0.321 |
| NCI-H1993 | 0.835 | 0.813 | 0.883 | 0.873 | 0.856 | 0.81 | 0.799 | 0.753 | 0.72 | 0.838 | 0.563 | 0.62 | 0.621 | 0.522 | 0.51 | 1.04 | 1.12 | 1.06 | 1.02 | 0.972 |
| NCI-H2009 | 1.06 | 1.05 | 1.07 | 1.05 | 1.03 | 1.16 | 1.19 | 1.21 | 1.2 | 1.17 | 0.381 | 0.348 | 0.361 | 0.37 | 0.373 | 1 | 0.831 | 1.12 | 0.869 | 1.14 |
| NCI-H2023 | 0.712 | 0.655 | 0.713 | 0.713 | 1.07 | 0.714 | 0.658 | 0.664 | 0.757 | 0.746 | 0.21 | 0.218 | 0.224 | 0.215 | 0.252 | 1.13 | 0.807 | 1 | 1.05 | 0.926 |
| NCI-H2085 | 0.86 | 0.909 | 0.93 | 0.892 | 0.948 | 0.911 | 0.787 | 0.982 | 0.823 | 0.793 | 0.487 | 0.526 | 0.557 | 0.476 | 0.573 | 1.13 | 0.972 | 1.18 | 0.975 | 1.02 |
| NCI-H2087 | 0.897 | 0.898 | 0.921 | 0.809 | 0.846 | 1.08 | 1.01 | 1.08 | 0.795 | 0.754 | 0.278 | 0.234 | 0.331 | 0.271 | 0.209 | 0.885 | 0.826 | 0.87 | 0.924 | 1.16 |
| NCI-H2126 | 1.01 | 1 | 0.959 | 1.01 | 1.1 | 0.666 | 0.696 | 0.725 | 0.614 | 0.733 | 0.598 | 0.58 | 0.595 | 0.541 | 0.58 | 1.12 | 1.11 | 1.12 | 1.07 | 1.2 |
| NCI-H2347 | 0.776 | 0.684 | 0.759 | 0.601 | 0.749 | 0.961 | 0.926 | 0.944 | 0.942 | 1.09 | 0.666 | 0.551 | 0.63 | 0.613 | 0.529 | 0.824 | 1.02 | 1.32 | 0.639 | 1.01 |
| NCI-H2405 | 0.847 | 0.867 | 0.855 | – | 1.02 | 0.958 | 1.01 | 0.833 | – | 1.02 | 0.748 | 0.715 | 0.711 | – | 0.795 | 1.02 | 0.765 | 0.967 | 0.972 | 1.01 |
| NCI-H3122 | 0.262 | 0.264 | 0.318 | 0.531 | 0.469 | 1.11 | 1.11 | 1.01 | 1.08 | 0.93 | 0.387 | 0.459 | 0.418 | 0.452 | 0.351 | 1.06 | 0.985 | 0.986 | 1.1 | 1.1 |
